# Source: PubChem BioAssay AID1963962 (Molecular Pharmacology Branch, DTP, NCI, 2024)
# pIC50: −log10 of the molar value.
# Test system: 967376-340-R-J2-PDC multicell spheroid viability
# Experiment: Anticancer human tumor 967376-340-R-J2-PDC patient-derived colon adenocarcinoma cell line growth inhibition [PI3K]
# Conditions: for viability, T/C: stronger effect = lower value
# Procedure, shortened: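 High-throughput combination screen: PI3K inhibitors crossed with targeted small molecules on complex spheroids of tumor cells, HUVEC and MSCs at 37 degrees C, 5% CO2. Top concentration was at or near clinical Cmax (otherwise 10 microM), with half-log decrements.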
# [1] = curve of first compound, second compound 0.00316 µM
# [2] = curve of first compound, second compound 0.01 µM
# [3] = curve of first compound, second compound 0.0316 µM
# [4] = curve of first compound, second compound 0.1 µM
# [5] = curve of first compound, second compound 0.316 µM
# [6] = curve of first compound, second compound 1 µM
# [7] = second compound 0.00316 µM, first compound 0.0316 µM
# [8] = second compound 0.00316 µM, first compound 0.1 µM
# [9] = second compound 0.00316 µM, first compound 0.316 µM
# [10] = second compound 0.00316 µM, first compound 1 µM
# [11] = second compound 0.00316 µM, first compound 3.16 µM
# [12] = second compound 0.00316 µM, first compound 10 µM
# [13] = second compound 0.01 µM, first compound 0.0316 µM
# [14] = second compound 0.01 µM, first compound 0.1 µM
# [15] = second compound 0.01 µM, first compound 0.316 µM
# [16] = second compound 0.01 µM, first compound 1 µM
# [17] = second compound 0.01 µM, first compound 3.16 µM
# [18] = second compound 0.01 µM, first compound 10 µM
# [19] = second compound 0.0316 µM, first compound 0.0316 µM
# [20] = second compound 0.0316 µM, first compound 0.1 µM
# [21] = second compound 0.0316 µM, first compound 0.316 µM
# [22] = second compound 0.0316 µM, first compound 1 µM
# [23] = second compound 0.0316 µM, first compound 3.16 µM
# [24] = second compound 0.0316 µM, first compound 10 µM
# [25] = second compound 0.1 µM, first compound 0.0316 µM
# [26] = second compound 0.1 µM, first compound 0.1 µM
# [27] = second compound 0.1 µM, first compound 0.316 µM
# [28] = second compound 0.1 µM, first compound 1 µM
# [29] = second compound 0.1 µM, first compound 3.16 µM
# [30] = second compound 0.1 µM, first compound 10 µM
# [31] = second compound 0.316 µM, first compound 0.0316 µM
# [32] = second compound 0.316 µM, first compound 0.1 µM
# [33] = second compound 0.316 µM, first compound 0.316 µM
# [34] = second compound 0.316 µM, first compound 1 µM
# [35] = second compound 0.316 µM, first compound 3.16 µM
# [36] = second compound 0.316 µM, first compound 10 µM
# [37] = second compound 1 µM, first compound 0.0316 µM
# [38] = second compound 1 µM, first compound 0.1 µM
# [39] = second compound 1 µM, first compound 0.316 µM
# [40] = second compound 1 µM, first compound 1 µM
# [41] = second compound 1 µM, first compound 3.16 µM
# [42] = second compound 1 µM, first compound 10 µM
# 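Note: spheroids exposed to agents for 7 days before read-out.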
# 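Throughout, for viability, T/C: luminescence used as surrogate of cell viability.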
structure (smiles),measurement,setting,value
COc1c(OCCCN2CCOCC2)ccc2c3n(c(=NC(=O)c4cnc(N)nc4)nc12)CCN3,"viability, T/C",compound 0.01 µM,85.7% [middle of 8 runs]
same,"viability, T/C",compound 0.0316 µM,79.9% [middle of 8 runs]
same,"viability, T/C",compound 0.1 µM,60.7% [middle of 8 runs]
same,"viability, T/C",compound 0.316 µM,47.8% [middle of 8 runs]
same,"viability, T/C",compound 1 µM,38.5% [middle of 8 runs]
same,IC50,"compound alone, run of 06/13/2023",212 nM [middle of 8 runs]
C#Cc1c(F)ccc2cc(O)cc(-c3ncc4c(N5CC6CCC(C5)N6)nc(OCC56CCCN5CC(F)C6)nc4c3F)c12 (configuration not stated) + CC(Nc1ccc2c(c1)OCCn1cc(N3C(=O)OCC3C(F)F)nc1-2)C(N)=O,pIC50,[1],< 5.00
same,pIC50,[2],< 5.00
same,pIC50,[3],< 5.00
same,pIC50,[4],< 5.00
same,pIC50,[5],< 5.00
same,pIC50,[6],5.65
same,"viability, T/C",[7],115%
same,"viability, T/C",[8],99.1%
same,"viability, T/C",[9],72.3%
same,"viability, T/C",[10],68.5%
same,"viability, T/C",[11],94.5%
same,"viability, T/C",[12],65.7%
same,"viability, T/C",[13],81.8%
same,"viability, T/C",[14],86%
same,"viability, T/C",[15],78.7%
same,"viability, T/C",[16],87.5%
same,"viability, T/C",[17],97.7%
same,"viability, T/C",[18],59.6%
same,"viability, T/C",[19],78.5%
same,"viability, T/C",[20],105%
same,"viability, T/C",[21],71.6%
same,"viability, T/C",[22],62.3%
same,"viability, T/C",[23],98.7%
same,"viability, T/C",[24],56.6%
same,"viability, T/C",[25],79.7%
same,"viability, T/C",[26],82%
same,"viability, T/C",[27],86.6%
same,"viability, T/C",[28],70.7%
same,"viability, T/C",[29],62%
same,"viability, T/C",[30],58.6%
same,"viability, T/C",[31],55.1%
same,"viability, T/C",[32],73.9%
same,"viability, T/C",[33],63.8%
same,"viability, T/C",[34],60.7%
same,"viability, T/C",[35],67.6%
same,"viability, T/C",[36],45.5%
same,"viability, T/C",[37],62.7%
same,"viability, T/C",[38],58.6%
same,"viability, T/C",[39],57.4%
same,"viability, T/C",[40],56.3%
same,"viability, T/C",[41],47.8%
same,"viability, T/C",[42],32.9%
CC(Cn1ccc(-c2ccc(C#N)c(Cl)c2)n1)NC(=O)c1cc(C(C)O)[nH]n1 (configuration not stated) + COc1c(OCCCN2CCOCC2)ccc2c3n(c(=NC(=O)c4cnc(N)nc4)nc12)CCN3,pIC50,[1],< 5.00
same,pIC50,[2],< 5.00
same,pIC50,[3],< 5.00
same,pIC50,[4],< 5.00
same,pIC50,[5],7.02
same,pIC50,[6],> 7.50
same,"viability, T/C",[7],109%
same,"viability, T/C",[8],117%
same,"viability, T/C",[9],79.6%
same,"viability, T/C",[10],93.6%
same,"viability, T/C",[11],110%
same,"viability, T/C",[12],86%
same,"viability, T/C",[13],91.2%
same,"viability, T/C",[14],77%
same,"viability, T/C",[15],76.8%
same,"viability, T/C",[16],91.6%
same,"viability, T/C",[17],82.7%
same,"viability, T/C",[18],86.1%
same,"viability, T/C",[19],81.7%
same,"viability, T/C",[20],88.1%
same,"viability, T/C",[21],61.9%
same,"viability, T/C",[22],57.7%
same,"viability, T/C",[23],76.4%
same,"viability, T/C",[24],63.8%
same,"viability, T/C",[25],78.6%
same,"viability, T/C",[26],54.4%
same,"viability, T/C",[27],59.4%
same,"viability, T/C",[28],67.5%
same,"viability, T/C",[29],70.5%
same,"viability, T/C",[30],59.5%
same,"viability, T/C",[31],64.2%
same,"viability, T/C",[32],44.9%
same,"viability, T/C",[33],48.2%
same,"viability, T/C",[34],46.1%
same,"viability, T/C",[35],57.4%
same,"viability, T/C",[36],50.3%
same,"viability, T/C",[37],36.6%
same,"viability, T/C",[38],42.4%
same,"viability, T/C",[39],26.6%
same,"viability, T/C",[40],47.1%
same,"viability, T/C",[41],34.4%
same,"viability, T/C",[42],32.6%
CC(C)NCC(C(=O)N1CCN(c2ncnc3c2C(C)CC3O)CC1)c1ccc(Cl)cc1 (configuration not stated),"viability, T/C",compound 0.0316 µM,107% [middle of 4 runs]
same,"viability, T/C",compound 0.1 µM,91.1% [middle of 4 runs]
same,"viability, T/C",compound 0.316 µM,90.2% [middle of 4 runs]
same,"viability, T/C",compound 1 µM,88% [middle of 4 runs]
same,"viability, T/C",compound 3.16 µM,103% [middle of 4 runs]
same,"viability, T/C",compound 10 µM,83.2% [middle of 4 runs]
same,pIC50,curve of compound,< 5.00
